Results from patent publication US20070072917A1, “Substituted 2-aminotetralin for the treatment of depression” (SRZ Properties, Inc., priority 2003, published 2007).
Entries after “also recorded” stand apart in the source; their conditions may differ.

Assays:
[1] = test system: bulbectomised rats; experiment: bulbectomy study (olfactory bulbs removed on both sides); assay type: in vivo, Sprague-Dawley rats; settings: low doses, 3 minutes on test field
Procedure: In a further animal model (embodiment 3), it was examined whether the antidepressive effects of rotigotine can be distinguished from a general motor stimulation. In this case, rotigotine was administered to rats whose olfactory bulbs had been removed on both sides. The removal of the olfactory bulb leads to an adaptive hyperactivity in the untreated control group. It is known from literature that chronically administered antidepressants lead to a reduction in the movement activity of the animals in this model, whereas stimulants further increase the motor activity (van Riezen H et al, Br J. Pharmacol. 60(4), 1977, 521; Kelly J P et al, Pharmacol Ther. 74(3), 1997, 299). Therefore, it is possible to discriminate between antidepressive and non-specific stimulatory effects of an active ingredient with this model. […] The bulbectomy study was carried out on Sprague-Dawley rats. A sham-operated group, which was operated on without removal of the olfactory bulbs, served as a control group. 14 days after the operation, the rats were treated with vehicle, a rotigotine depot suspension (every second day) or imipramine. On test days, the rats were placed onto a test field and left to themselves for 3 minutes. The locomotor activities of the animals were thereby measured on the basis of the number of lines crossed.

[2] = test system: rats; experiment: forced swim test; assay type: in vivo; settings: repeated swim test, subcutaneously applied
From the text: The “forced swim test” is an animal model in which depressive episodes are triggered by acute stress. In this test, rats are forced to swim in a limited space. After initial attempts to save themselves, in which the animals realise the hopelessness of the situation, they lapse into immobility. On repetition of the experiment, the animals remain immobile from the start of the experiment. If the animals are pre-treated with antidepressants, the period of immobility in the repeated test is shortened and the animals generally commence search and escape movements immediately after transfer into the water basin (Porsolt, Biomedicine 30, 1979, 139).

[3] = test system: rats; experiment: learned helplessness test; assay type: in vivo; settings: several days of administration, low concentrations / depending on the dose, vs vehicle control (HC)
Procedure: In the “learned helplessness test”, rats are repeatedly subjected to uncontrollable stress. This brings about an impaired learning ability in the animals in a later situation (for example after 48 hours) in which they could escape the stress again. Following the sub-chronic but not acute administration of antidepressants, the learning ability normalises again and the animals learn to escape the (announced) stress (in time) (Sherman, Pharmacology Biochemistry & Behavior 16, 1982, 449).

CCCN(CCc1cccs1)C1CCc2c(O)cccc2C1 (single isomer, unassigned; (-)) [rotigotine, (−)-5,6,7,8-tetrahydro-6-[propyl[2-(2-thienyl)ethyl]amino]-1-naphthol]
bulbectomy-induced locomotor hyperactivity (number of lines crossed) [1]: almost complete suppression of the bulbectomy-induced locomotor hyperactivity; also recorded: significant antidepressive effect; also recorded: significantly reduce motor hyperactivity
period of immobility [2]: significant antidepressive effect; also recorded: clear reduction in the period of immobility
period of immobility ([2]; listed as Rotigotine): significantly shortened period of immobility
learning behaviour [3]: significant antidepressive effect
